# Where two headings read alike, the source gives them in different places.
# How the values were obtained:
# Assay in all cases: Broth microdilution MIC, European bacteraemia isolates 2010-2012
# [1] = tested on: E. faecalis; assay type: cell-based, Enterococcus faecalis; details: for % Resistant, CLSI / % Susceptible, CLSI: CLSI M100-S23 breakpoints; for % Resistant, EUCAST / % Susceptible, EUCAST: EUCAST 2013 breakpoints; for % susceptible: E. faecalis strains, criteria not stated; for MIC50 / MIC90: Enterococcus faecalis; for MIC50: read-out: MIC 50%; for MIC90: read-out: MIC 90%
# Description: (§1) A total of 2,904 clinical strains responsible for documented bacteremia among unique hospitalized patients in 38 hospitals in 11 European Union countries. Israel, Russia, Turkey and Ukraine were included in this study (2010-2012). Isolates were submitted to a central monitoring laboratory (JMI Laboratories, North Liberty. Iowa. USA), following previously established protocols. Bacterial species identification was performed by using an automated system (Vitek®2; bioMèrieux, Hazelwood, Mo., USA) or conventional biochemical algorithms, as required.
# (§2) Isolates were tested for susceptibility by broth microdilution methods following the Clinical and Laboratory Standards Institute (CLSI; M07-A9, 2012) document. Susceptibility testing was performed in cation-adjusted Mueller-Hinton broth (CA-MHB) using dry-form panels manufactured by Thermo Fisher Scientific, formerly TREK Diagnostics Systems/Sensititre (Cleveland. Ohio, USA). These panels provide results equivalent to the CLSI-approved broth microdilution method supplemented with 0.002% polysorbate-80.
# (§3) Quality assurance was performed by concurrent testing of CLSI-recommended (M100-S23, 2013) strains: E. faecalis ATCC 29212 and S. aureus ATCC 29213. Interpretation of comparator MIC results was in accordance with published CLSI (M100-S23) and European Committee on Antimicrobial Susceptibility Testing (EUCAST, 2013) criteria.
# [2] = tested on: S. aureus; assay type: cell-based; details: S. aureus Methicillin-resistant (1,708); for % Resistant, CLSI / % Susceptible, CLSI: CLSI M100-S23 breakpoints; for % Resistant, EUCAST / % Susceptible, EUCAST: EUCAST 2013 breakpoints; for MIC50 / MIC90: Staphylococcus aureus; for MIC50: read-out: MIC 50%; for MIC90: read-out: MIC 90%
# Description: as §1, §2, §3
# [3] = tested on: Coagulase-negative staphylococci; assay type: cell-based, coagulase-negative staphylococci (CoNS); details: Coagulase-negative staphylococci (646); for MIC50: read-out: MIC 50%; for MIC90: read-out: MIC 90%
# Description: as §1, §2, §3
# [4] = tested on: E. faecium; assay type: cell-based, Enterococcus faecium; details: for % Resistant, CLSI / % Susceptible, CLSI: CLSI M100-S23 breakpoints; for % Resistant, EUCAST / % Susceptible, EUCAST: EUCAST 2013 breakpoints; for MIC 50% / MIC 90% / MIC Range / MIC90 / MIC50: Table 2; for MIC90 / MIC50: Enterococcus faecium; for MIC90: read-out: MIC 90%; for MIC50: read-out: MIC 50%
# Description: as §1, §2, §3
# [5] = E. faecium Vancomycin-resistant (VanA-phenotype) (153)
# [6] = E. faecium Vancomycin-susceptible (257)
compound,measurement,setting,value
Teicoplanin,"% Resistant, CLSI",[1]; E. faecalis (445),0.9%
same,"% Susceptible, CLSI",[1]; E. faecalis (445),99.1%
same,"% Resistant, EUCAST",[1]; E. faecalis (445),0.9%
same,"% Susceptible, EUCAST",[1]; E. faecalis (445),99.1%
same,% susceptible,[1],99.1%
same,MIC 50%,"[1]; Table 2, E. faecalis (445)",≦2 mg/L
same,MIC 90%,"[1]; Table 2, E. faecalis (445)",≦2 mg/L
same,"% Resistant, CLSI",[2],0.0%
same,"% Susceptible, CLSI",[2],100.0%
same,"% Resistant, EUCAST",[2],0.0%
same,"% Susceptible, EUCAST",[2],100.0%
same,MIC 50%,[2]; Table 2,≦2 mg/L
same,MIC 90%,[2]; Table 2,≦2 mg/L
same,MIC Range,[2]; Table 2,≦2 mg/L
same,"% Resistant, CLSI",[3]; CLSI M100-S23 breakpoints,0.8%
same,"% Susceptible, CLSI",[3]; CLSI M100-S23 breakpoints,97.7%
same,"% Resistant, EUCAST",[3]; EUCAST 2013 breakpoints,11.1%
same,"% Susceptible, EUCAST",[3]; EUCAST 2013 breakpoints,88.9%
same,MIC 50%,[3]; Table 2,≦2 mg/L
same,MIC 90%,[3]; Table 2,8 µg/mL
same,"% Resistant, CLSI",[4]; [5],96.2%
same,"% Susceptible, CLSI",[4]; [5],0.0%
same,"% Resistant, EUCAST",[4]; [5],100.0%
same,"% Susceptible, EUCAST",[4]; [5],0.0%
same,"% Resistant, CLSI",[4]; [6],0.0%
same,"% Susceptible, CLSI",[4]; [6],100.0%
same,"% Resistant, EUCAST",[4]; [6],0.4%
same,"% Susceptible, EUCAST",[4]; [6],99.6%
same,MIC 50%,[4]; [5],>8 µg/mL
same,MIC 90%,[4]; [5],>8 µg/mL
same,MIC Range,[4]; [5],>8 µg/mL
same,MIC 50%,[4]; [6],≦2 mg/L
same,MIC 90%,[4]; [6],≦2 mg/L
same,MIC Range,[4]; [6],≦2-4 mg/L
CC1(C)S[C@@H]2[C@H](NC(=O)[C@H](N)c3ccccc3)C(=O)N2[C@H]1C(=O)O [Ampicillin],"% Resistant, CLSI",[1]; E. faecalis (445),0.0%
same,"% Susceptible, CLSI",[1]; E. faecalis (445),100.0%
same,"% Resistant, EUCAST",[1]; E. faecalis (445),0.0%
same,"% Susceptible, EUCAST",[1]; E. faecalis (445),99.6%
same,% susceptible,[1],99.6%
same,MIC50,"[1]; Table 2, E. faecalis (445)",≤ 1 µg/mL
same,MIC90,"[1]; Table 2, E. faecalis (445)",2 µg/mL
same,MIC 50%,"[1]; Table 2, E. faecalis (445)",≦1 mg/L
same,MIC Range,"[1]; Table 2, E. faecalis (445), includes four VanA-phenotype strains",≦1-8 mg/L
same,"% Resistant, CLSI",[4]; [5],100.0%
same,"% Susceptible, CLSI",[4]; [5],0.0%
same,"% Resistant, EUCAST",[4]; [5],100.0%
same,"% Susceptible, EUCAST",[4]; [5],0.0%
same,"% Resistant, CLSI",[4]; [6],94.2%
same,"% Susceptible, CLSI",[4]; [6],5.8%
same,"% Resistant, EUCAST",[4]; [6],94.2%
same,"% Susceptible, EUCAST",[4]; [6],5.4%
same,MIC90,[4]; [5],> 8 µg/mL
same,MIC50,[4]; [6],> 8 µg/mL
same,MIC90,[4]; [6],> 8 µg/mL
same,MIC 50%,[4]; [5],>8 µg/mL
same,MIC Range,[4]; [5],>8 µg/mL
CCC[C@@H]1C[C@@H](C(=O)N[C@@H]([C@H]2O[C@H](SC)[C@H](O)[C@@H](O)[C@H]2O)[C@H](C)Cl)N(C)C1 [Clindamycin],"% Resistant, CLSI",[2],40.3%
same,"% Susceptible, CLSI",[2],59.1%
same,"% Resistant, EUCAST",[2],40.9%
same,"% Susceptible, EUCAST",[2],58.9%
same,MIC50,[2]; Table 2,≤ 0.25 µg/mL
same,MIC90,[2]; Table 2,> 2 µg/mL
same,"% Resistant, CLSI",[3]; CLSI M100-S23 breakpoints,26.0%
same,MIC50,[3]; Table 2,≤ 0.25 µg/mL
same,MIC90,[3]; Table 2,> 2 µg/mL
Cc1onc(-c2ccccc2)c1C(=O)N[C@@H]1C(=O)N2[C@@H]1SC(C)(C)[C@@H]2C(=O)O [Oxacillin],"% Resistant, CLSI",[3]; CLSI M100-S23 breakpoints,78.8%
same,MIC50,[3]; Table 2,> 2 µg/mL
same,MIC90,[3]; Table 2,> 2 µg/mL
C[C@H]1COc2c(N3CCN(C)CC3)c(F)cc3c(=O)c(C(=O)O)cn1c23 [Levofloxacin],"% Resistant, CLSI",[1]; E. faecalis (445),35.3%
same,"% Susceptible, CLSI",[1]; E. faecalis (445),64.3%
same,MIC50,"[1]; Table 2, E. faecalis (445)",1 µg/mL
same,MIC90,"[1]; Table 2, E. faecalis (445)",> 4 µg/mL
same,"% Resistant, CLSI",[2],90.3%
same,"% Susceptible, CLSI",[2],8.6%
same,"% Resistant, EUCAST",[2],90.3%
same,"% Susceptible, EUCAST",[2],8.6%
same,MIC50,[2]; Table 2,> 4 µg/mL
same,MIC90,[2]; Table 2,> 4 µg/mL
same,"% Resistant, CLSI",[3]; CLSI M100-S23 breakpoints,56.2%
same,MIC50,[3]; Table 2,4 µg/mL
same,MIC90,[3]; Table 2,> 4 µg/mL
same,"% Resistant, CLSI",[4]; [5],100.0%
same,"% Susceptible, CLSI",[4]; [5],0.0%
same,"% Resistant, CLSI",[4]; [6],89.1%
same,"% Susceptible, CLSI",[4]; [6],5.8%
same,MIC90,[4]; [5],> 4 µg/mL
same,MIC50,[4]; [6],> 4 µg/mL
same,MIC90,[4]; [6],> 4 µg/mL
same,MIC 50%,[4]; [5],>4 µg/mL
same,MIC Range,[4]; [5],>4 µg/mL
CC[C@H]1OC(=O)[C@H](C)[C@@H](O[C@H]2C[C@@](C)(OC)[C@@H](O)[C@H](C)O2)[C@H](C)[C@@H](O[C@@H]2O[C@H](C)C[C@H](N(C)C)[C@H]2O)[C@](C)(O)C[C@@H](C)C(=O)[C@H](C)[C@@H](O)[C@]1(C)O [Erythromycin],"% Resistant, CLSI",[1]; E. faecalis (445),54.8%
same,"% Susceptible, CLSI",[1]; E. faecalis (445),8.1%
same,MIC50,"[1]; Table 2, E. faecalis (445)",> 4 µg/mL
same,MIC90,"[1]; Table 2, E. faecalis (445)",> 4 µg/mL
same,"% Resistant, CLSI",[2],68.0%
same,"% Susceptible, CLSI",[2],29.6%
same,"% Resistant, EUCAST",[2],69.1%
same,"% Susceptible, EUCAST",[2],29.8%
same,MIC50,[2]; Table 2,> 4 µg/mL
same,MIC90,[2]; Table 2,> 4 µg/mL
same,"% Resistant, CLSI",[3]; CLSI M100-S23 breakpoints,65.1%
same,MIC50,[3]; Table 2,> 4 µg/mL
same,MIC90,[3]; Table 2,> 4 µg/mL
same,"% Resistant, CLSI",[4]; [5],98.1%
same,"% Susceptible, CLSI",[4]; [5],0.0%
same,"% Resistant, CLSI",[4]; [6],91.4%
same,"% Susceptible, CLSI",[4]; [6],3.5%
same,MIC90,[4]; [5],> 4 µg/mL
same,MIC50,[4]; [6],> 4 µg/mL
same,MIC90,[4]; [6],> 4 µg/mL
same,MIC 50%,[4]; [5],>4 µg/mL
CN(C)[C@@H]1C(O)=C(C(N)=O)C(=O)[C@@]2(O)C(O)=C3C(=O)c4c(O)cccc4[C@@](C)(O)[C@H]3C[C@@H]12 [Tetracycline],"% Resistant, CLSI",[1]; E. faecalis (445),73.5%
same,"% Susceptible, CLSI",[1]; E. faecalis (445),26.5%
same,MIC50,"[1]; Table 2, E. faecalis (445)",> 8 µg/mL
same,MIC90,"[1]; Table 2, E. faecalis (445)",> 8 µg/mL
same,"% Resistant, CLSI",[2],14.2%
same,"% Susceptible, CLSI",[2],84.9%
same,"% Resistant, EUCAST",[2],15.1%
same,"% Susceptible, EUCAST",[2],84.4%
same,MIC50,[2]; Table 2,≤ 0.25 µg/mL
same,MIC90,[2]; Table 2,> 8 µg/mL
same,"% Resistant, CLSI",[3]; CLSI M100-S23 breakpoints,15.2%
same,MIC50,[3]; Table 2,1 µg/mL
same,MIC90,[3]; Table 2,> 8 µg/mL
same,"% Resistant, CLSI",[4]; [5],41.5%
same,"% Susceptible, CLSI",[4]; [5],58.5%
same,"% Resistant, CLSI",[4]; [6],43.2%
same,"% Susceptible, CLSI",[4]; [6],56.0%
same,MIC90,[4]; [5],> 8 µg/mL
same,MIC50,[4]; [6],0.5 µg/mL
same,MIC90,[4]; [6],> 8 µg/mL
same,MIC 50%,[4]; [5],0.5 µg/mL
